Data set [1] in a line: Relative thermodynamic stability in suspension experiments (XRPD on precipitates). The format is physicochemical.
A further data set deals with MMP12 (Homo sapiens, UniProt P39900). The settings on record: background statement, compound of WO 02/074767; cited from earlier work.
A short description of data set [2]: Humidity sorption by gravimetrical vapour sorption (GVS). The format is physicochemical. How it is done:
The gravimetric responses of test samples to changes in humidity were investigated using either a SGA 100 (VTI Corporation) or a DVS 2 (Surface Measurement System) Gravimetrical Vapour Sorption (GVS) instrument with the following features: Dry to 90% RH and back in steps of, for example, 10% RH.
Equilibrium condition: <0.01 weight-% per 10 minutes (<0.001 weight-%/min)
Approximately 5 mg of the test sample was placed in the cup and evaluated.

Data set [3] in a line: Solid-state storage stability (chemical and physical). The settings on record: 25° C./desiccated; 25° C./60% RH; 40° C./75% RH; examined after 2, 4, 8 and 12 weeks. It is filed as physicochemical. How it is done: The solid-state stability of compound (I) Form G was studied under three sets of conditions: at 25° C./desiccated; at 25° C./60% RH; and at 40° C./75% RH. Samples were examined after 2, 4, 8 and 12 weeks and chemical and physical stability was evaluated.

The nature of data set [4]: Thermal behaviour on heating (DSC and TGA). The format is physicochemical. The conditions noted are these: below 200° C.; neither solvent loss nor any other thermal event prior to melting. Here is the method:
The calorimetric response of a test sample to increasing temperature was investigated using a Q1000 Modulated Temperature Differential Scanning Calorimeter (MTDSC) (TA Instruments) using different methods, the main features being:
Normally modulated mode (“heat only”) with a ramp rate of 5° C./min (but also 1 and 20° C./min were used without modulation). The temperature range was from just below ambient to above 200° C.
Approximately 2 mg of the test sample was placed in an aluminium cups with a lid (no crimping).
The gravimetric response of test samples to increasing temperatures was investigated using a Q500 Thermal Gravimetric Analyser (TGA) (TA Instruments) using the following parameters:
Heating rate (normally): 5° C./min
Approximately 2 to 5 mg of the test sample was placed in the cup and heated to just above 200° C.

The text below walks through data of patent US20090221640A1, “Novel Crystal Modifications” (ASTRAZENECA AB, priority 2006, published 2009).

A value given as a limit tells only on which side of the number the result lay.

Chain of MMP12 (P39900 106-470): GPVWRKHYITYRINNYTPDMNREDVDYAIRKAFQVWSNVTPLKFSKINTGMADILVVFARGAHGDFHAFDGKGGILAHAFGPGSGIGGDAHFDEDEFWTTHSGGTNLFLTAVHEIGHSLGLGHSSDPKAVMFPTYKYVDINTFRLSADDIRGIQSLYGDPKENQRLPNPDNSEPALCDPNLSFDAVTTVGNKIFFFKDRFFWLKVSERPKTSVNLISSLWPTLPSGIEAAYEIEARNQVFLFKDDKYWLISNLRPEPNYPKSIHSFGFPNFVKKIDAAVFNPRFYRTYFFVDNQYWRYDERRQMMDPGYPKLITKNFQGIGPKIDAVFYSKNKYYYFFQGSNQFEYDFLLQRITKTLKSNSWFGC

For the molecule `C[C@]1(CS(=O)(=O)N2CCC(Oc3ccc(Cl)cn3)CC2)NC(=O)NC1=O` [Form A, (5S)-5-[4-(5-chloro-pyridin-2-yloxy)-piperidine-1-sulfonylmethyl]-5-methyl-imidazolidine-2,4-dione], the “conversion of crystal form in suspension (XRPD)” value in data set [1] (suspensions in organic solvents (ethanol, methanol, 1-propanol, 2-propanol, acetone or ethyl acetate)) is on record as “complete conversion into Form G”.
Consider `C[C@]1(CS(=O)(=O)N2CCC(Oc3ccc(Cl)cn3)CC2)NC(=O)NC1=O` [Compound (I), (5S)-5-[4-(5-chloro-pyridin-2-yloxy)-piperidine-1-sulfonylmethyl]-5-methyl-imidazolidine-2,4-dione], for which, on MMP12, the “MMP12 inhibition (in words)” value was “potent inhibitor of MMP12”.
Regarding `C[C@]1(CS(=O)(=O)N2CCC(Oc3ccc(Cl)cn3)CC2)NC(=O)NC1=O` [compound (I) Form G, (S)-5-[4-(5-Chloro-pyridin-2-yloxy)-piperidine-1-sulfonylmethyl]-5-methyl-imidazolidine-2,4-dione Form G], the “relative thermodynamic stability among the seven crystalline modifications” value in data set [1] (temperature range investigated (5 to 40° C.)) was “thermodynamically most stable”. For the same molecule, the humidity uptake in data set [2] (at 80% RH, GVS) is less than 0.05%. Moreover, in data set [2] (criteria defined in the European Pharmacopoeia), the hygroscopicity classification result is recorded as “non-hygroscopic”. The “solid-state chemical and physical stability” value in data set [3] is “chemically and physically stable”. Further, the “thermal stability (DSC and TGA traces)” value in data set [4] is recorded as “thermally stable”.
